# Laboratory results as given in patent publication US20140212981A1, “METHODS AND SYSTEMS FOR DETERMINING THE AMOUNT OF THIOPURINE METABOLITES IN A SAMPLE” (Laboratory Corporation of America Holdings, priority 2012, published 2014).
# How the values were obtained:
# [1] = cited from earlier work; for Therapeutic Range: metabolite level in red blood cells of subjects on thiopurine treatment, exemplary therapeutic levels
# [2] = Acid-promoted conversion (hydrolysis) as a function of time; assay type: physicochemical; details: FIG. 2C
# Text: The method comprises converting the one or more 6-thioguanine nucleotide compounds to 6-thioguanine or a 6-thioguanine hydrolysis product. The converting can be carried out in any manner known to those of skill in the art. In some embodiments, the converting comprises contacting the one or more 6-thioguanine nucleotide compounds with a sulfur-containing reducing agent to yield one or more reduced 6-thioguanine nucleotide compounds. Any suitable sulfur-containing reducing agent can be used. In some embodiments, the sulfur-containing reducing agent is dithioerythritol. In some such embodiments, the method comprises contacting the one or more reduced 6-thioguanine nucleotide compounds with an acidic hydrolyzing agent. Any suitable acidic hydrolyzing agent can be used. In some embodiments, the acidic hydrolyzing agent is perchloric acid, nitric acid, sulfuric acid, or a combination thereof. In some such embodiments, the acidic hydrolyzing agent is perchloric acid.
# In some embodiments the hydrolysis of 6-methylmercaptopurine nucleotide compounds proceeds according to Scheme 2 below. […] The 6-methylmercaptopurine is readily hydrolyzed in the presence of acid to form a 6-methylmercaptopurine hydrolysis product comprising 4-amino-5-(methylthio) carbonyl imidazole. […]
compound,measurement,setting,value
6-methylmercaptopurine nucleotides [6-MMPNs],Therapeutic Range,[1],<5700 pmol/8 × 10^8RBC
same,Alert Values,"[1]; metabolite level in red blood cells, levels in this range require modulation of therapy",>5700 pmol/8 × 10^8RBC
6-thioguanine nucleotides [6-TGNs],Therapeutic Range,[1],235 - 450 pmol/8 × 10^8RBC
"CSc1ncnc2nc[nH]c12 [6-MMP, 6-methylmercaptopurine]",Time for acid-promoted conversion to hydrolysis product,"[2]; 6-MMP to 6-MMP*, perchloric acid hydrolysis",less than 140 minutes
[2H]C([2H])([2H])Sc1ncnc2[nH]cnc12 [D3-6-MMP],Rate of acid-promoted conversion relative to unlabeled 6-MMP,[2]; D3-6-MMP to D3-6-MMP*,same rate as unlabeled 6-MMP
